In US20070248672A1, “Indole and Azaindole Derivatives with Antitumor Action” (priority 2004, published 2007):
Entries after “also recorded” stand apart in the source; their conditions may differ. Like-named read-outs stand apart in the source and are kept apart here.

What was measured:
[1] = target: Vacuolar ATPase in human osteoclastoma (hOc) (Homo sapiens, UniProt P27449+Q13488); test: Vacuolar ATPase inhibition in human osteoclastoma (hOc) microsomal fraction; format: biochemical; conditions: 30 min, 37° C.
Sequence of Vacuolar ATPase in human osteoclastoma (hOc) (P27449 whole entry, looked up): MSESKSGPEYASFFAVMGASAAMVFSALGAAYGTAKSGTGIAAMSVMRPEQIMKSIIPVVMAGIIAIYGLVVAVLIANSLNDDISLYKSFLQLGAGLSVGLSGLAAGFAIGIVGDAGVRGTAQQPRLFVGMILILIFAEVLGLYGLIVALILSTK
Sequence of Vacuolar ATPase in human osteoclastoma (hOc) (Q13488 whole entry, looked up): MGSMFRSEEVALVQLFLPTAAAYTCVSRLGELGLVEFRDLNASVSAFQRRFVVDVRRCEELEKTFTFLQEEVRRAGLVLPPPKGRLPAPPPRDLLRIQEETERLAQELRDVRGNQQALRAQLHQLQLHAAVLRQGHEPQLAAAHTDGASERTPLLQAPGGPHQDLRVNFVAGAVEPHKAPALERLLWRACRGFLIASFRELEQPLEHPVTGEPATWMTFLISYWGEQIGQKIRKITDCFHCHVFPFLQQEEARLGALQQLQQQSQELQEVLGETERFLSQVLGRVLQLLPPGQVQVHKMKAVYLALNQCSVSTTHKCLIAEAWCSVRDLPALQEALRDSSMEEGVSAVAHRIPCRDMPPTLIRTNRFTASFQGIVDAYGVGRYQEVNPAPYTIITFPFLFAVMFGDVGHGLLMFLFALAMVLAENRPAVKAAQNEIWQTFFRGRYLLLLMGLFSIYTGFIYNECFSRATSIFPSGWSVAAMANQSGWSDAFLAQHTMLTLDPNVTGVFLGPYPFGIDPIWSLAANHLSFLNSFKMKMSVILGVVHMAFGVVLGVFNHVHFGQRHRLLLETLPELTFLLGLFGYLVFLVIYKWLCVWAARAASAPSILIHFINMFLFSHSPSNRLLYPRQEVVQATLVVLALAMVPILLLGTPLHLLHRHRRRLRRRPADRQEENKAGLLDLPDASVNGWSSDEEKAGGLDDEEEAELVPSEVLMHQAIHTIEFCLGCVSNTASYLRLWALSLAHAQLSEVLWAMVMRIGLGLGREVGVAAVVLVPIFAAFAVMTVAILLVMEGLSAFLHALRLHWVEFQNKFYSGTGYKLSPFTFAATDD
Experimental: 1.1 Determination of Vacuolar ATpase Inhibition in Human Osteoclastoma (hOc)
Osteoclast-like giant cells isolated from human osteoclastoma are homogenized using a glass-teflon homogeniser (1000 rpm) and the material is centrifuged for 20 minutes at 6000 g. The resultant pellet is resuspended and centrifuged at 100000 g for 60 minutes to sediment the microsomal fraction. The resultant pellet is resuspended in medium at pH 7.4 and stored under liquid nitrogen.
Inhibition of bafilomycin sensitive ATPase activity is assayed by measuring the release of inorganic phosphate during 30 minutes of incubation, at 37° C., of the human osteoclastoma microsomal fraction in 96-well plates. The reaction medium contains 1 mM ATP, 10 mM Hepes-Tris buffer pH 8, 50 mM KCl, 5 μM valinomycin, 5 μM nigericin, 1 mM CDTA-Tris, 100 μM ammonium molybdate, 0.2 M sucrose and the microsomal fraction (20 μg protein/ml). The reaction is initiated by adding MgSO4 and terminated, after 30 minutes, by adding 4 volumes of the reagent malachite green, prepared according to Chan K., Anal. Biochem. 157, 375-380, 1986.

tumour cells = test: Antiproliferative effect on tumour cells, combined treatment with known antitumour agents; format: cell-based; conditions: with topotecan, SN38, taxol, doxorubicin and anthracyclines
Experimental: (§1) The cells (HT29 and HT29/Mit: 40,000 cells/ml, LoVo, LoVo/Dx and HCT116: 50,000 cells/ml) are seeded in 100 μl of the respective culture media in 96-well plates. 24 hours after seeding, an aliquot (10 μl) of drug at the various concentrations is added. In the samples in which the effect of the combination of two compounds is to be tested the inhibitor is added immediately before the cytotoxic. For each dose or combination of doses/drugs the effect of the treatment is determined in 4-8 replicates.
(§2) The Combination Index (C.I.) was determined according to Kern's method, 1988 (who continued from Drewinko B, 1976) (Kem D. H., Cancer Res. 48, 117-121, 1988; Drewinko B., Cancer Biochem. Biophys. 1, 187-195, 1976) by means of the following formula: […], where SFa and SFb are the fractions of cells surviving to treatment with compound a and b, respectively; SFab is the fraction surviving to the combination of compounds a and b. If the result is =1, the interaction between the two compounds is additive; if it is >1, the interaction between the two compounds is synergistic; if it is <1, the interaction between the two compounds is antagonistic.

HepG2 cells = test: Antiproliferative activity, 48 h treatment, ATPlite luminescence assay, HepG2; format: cell-based, human; conditions: Homo sapiens; HepG2, 48 h treatment; read-out: Antiproliferative activity (IC50 ± S.D.) HepG2 48 h treatment
Experimental: HepG2: maintained in EMEM medium+10% FCS.
2.3 Scheme of the Antiproliferative Activity Experiment (Treatment Time: 48 Hours)
The cells (concentration: 30,000 cells/ml) are seeded in 90 μl of the respective culture media in 96-well plates. 24 hours after seeding, an aliquot (10 μl) of the drug at the various concentrations is added (for each concentration there are 3 replicates). After 48 hours of treatment the antiproliferative effect is evaluated with a luminescence assay (Perkin Elmer Life Sciences ATPlite):
50 μl of a lysis solution are added to each well followed by an equal volume of a solution containing luciferase and D-luciferin. The ATP present in all the metabolically active cells brings about the transformation reaction of D-luciferin, catalysed by luciferase, to produce a luminescent signal as described in the following scheme: ATP+D-luciferin+O2→Oxyluciferin+AMP+PP1+CO2+Light
The luminescence produced (expressed in counts per second, CPS) is measured by means of a microplate scintillation analyzer (Perkin Elmer Life Sciences Top Count).
Percentage inhibition of luminescence in the treated cells compared to the control is calculated; concentration-response curves are then analysed using Grafit v.5.0.

HT29 cells [2] = test: Antiproliferative activity, 72 h treatment, SRB assay, HT29; format: cell-based, human; conditions: Homo sapiens
Experimental: HT29 and HT29/Mit (line obtained by prolonged exposure to mitoxantrone, and characterised by overexpression of BCRP, which confers cross resistance to topotecan, irinotecan and to its metabolite SN38): maintained in McCoy 5A medium+10% FCS.
2.2 Scheme of the Antiproliferative Activity Experiment (Treatment Time: 72 Hours)
as §1
(§3) After 72 hours of treatment the antiproliferative effect is evaluated using the sulforhodamine B (SRB) assay: the cells are fixed by adding 25 μl of 50% TCA to each well and left for 1 hour at 4° C. After washing them with water and allowing them to dry, 100 μl of 0.4% SRB in 1% acetic acid are added and left for 30 minutes at room temperature. After 4 washes in 1% acetic acid, they are left to dry then the dye fixed by the proteins is dissolved under basic conditions with 100 μl 10 mM cold Tris and the solution is read using a spectrophotometer at 550 nm.
(§4) Percentage cell growth is calculated as the optical density of treated samples compared to the optical density of controls (untreated cells).

HT29/Mit cells = test: Co-treatment with topotecan, HT29/Mit resistant cells (Combination Index according to Kern); format: cell-based, human; conditions: HT29/Mit; compound at non-toxic concentrations 0.01-0.1 μM
Experimental: as §1, §3, §4, §2

[3] = test system: HT29/Mit human colon carcinoma xenografts; test: HT29/Mit human colon carcinoma xenograft, antitumor activity; format: in vivo, athymic Swiss nude mice
Text: 1.1 Model of HT29/Mit human colon carcinoma xenografts-Antitumor activity Female athymic Swiss nude mice (8-10 weeks old) (Charles River, Calco, Italy) were used for the experiments. The animals were maintained at constant temperature and humidity, and were allowed to eat and drink freely. The experimental protocol was approved by the Ethics Committee for Animal Experimentation of the Istituto Nazionale Tumori of Milan. The antitumour effectiveness of the compounds of the invention under discussion was tested on athymic mouse models implanted with HT29 and/or HT29/Mit tumour cells: this latter variety is highly resistant to topotecan treatment. The tumour cells were implanted in vivo via subcutaneous injection of 10^7 cells taken from in vitro cultures. Randomized groups of five mice with bilateral subcutaneous tumours were used for the experiment. Topotecan or other known antitumour agents (dissolved in distilled water or an appropriate solvent) and the compounds of the invention (dissolved in Cremophor EL: ethanol: saline solution in the proportions 5:5:90, or in an appropriate solvent) were administered orally from the third day, alone or in combination, in agreement with a treatment scheme selected in an appropriate manner depending on the type of compound to be studied. The weight (or volume) of the tumour in treated mice compared to controls is represented graphically on the y-axis against time (x-axis).

HT29 cells [4] = test: Co-treatment with topotecan, HT29 cells (Combination Index according to Kern); format: cell-based, human; conditions: HT29; compound at 4 μM (3 experiments) and 8 μM (2 experiments), subtoxic doses
Experimental: as §1, §3, §4, §2

**Q.** Which IC50 [1] does the source give for `COC(=O)c1[nH]c2cc(OC)c(OC)cc2c1-c1ccc(OC)cc1` [Example 1, 5,6-Dimethoxy-3-(4-methoxy-phenyl)-1H-indole-2-carboxylic acid methyl ester] here?
**A.** Its IC50 is 0.5 µM.

**Q.** What about the “effect in combination with cytotoxic agents” value (tumour cells) of the same molecule?
**A.** Its value is “marked synergistic effects”.

**Q.** And the IC50 (HepG2 cells)?
**A.** The IC50 was 24.4 ± 7.9 µM.

**Q.** What about the IC50 (HT29 cells [2]; HT-29, HT29, after 72 hours of treatment, range stated for the group, read-out: IC50 values in the sensitive line) of the same molecule?
**A.** Its IC50 is 5 to 42 µM.

**Q.** And the IC50 (HT29 cells [2]; HT-29, 72 h treatment, read-out: Antiproliferative activity (IC50 ± S.D.) HT-29 72 h treatment)?
**A.** Its IC50 is 14.4 ± 2.1 µM.

**Q.** And the “effect of co-treatment with topotecan” value (HT29/Mit cells)?
**A.** The value was “synergism; also recorded: clear synergistic effect”.

**Q.** And the “antitumoral efficacy of combined administration with topotecan” value ([3]; 30 mg/kg p.o. with topotecan 1 or 2 mg/kg p.o., statistically significant with 1 mg topotecan)?
**A.** The value was “increased antitumoral efficacy”.

**Q.** What about the tumor growth inhibition ([3]; administered alone, 30 mg/kg p.o., after 7 days of treatment, statistically significant) of the same molecule?
**A.** The tumor growth inhibition was 43%.

**Q.** What about the “effect of combination with topotecan (Combination Index according to Kern)” value (HT29 cells [4]) of the same molecule?
**A.** Its value is “clear synergistic effect”.
